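Exposure lasted 48 hours, with cells grown in 96-well plates and compounds tested at five concentrations. The concentration for 50% growth inhibition is given as GI50. TGI denotes the concentration required for complete inhibition of growth.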
Assays:
Experiment in all cases: inhibition of tumour cell growth, NCI panel, 48 h
[1] = tested on: HT29 colon
[2] = tested on: SNB-19 CNS
[3] = tested on: PC-3 prostate
[4] = tested on: A549 NSCLC
[5] = tested on: MCF7 breast
[6] = tested on: LOX IMVI melanoma
[7] = tested on: ACHN renal
[8] = tested on: OVCAR-5 ovarian
[9] = tested on: OVCAR-3 ovarian
[10] = tested on: HOP-92 NSCLC

In the case of `Cc1nn(C(=O)Cc2ccccc2)c2c1C(c1ccc(O)cc1)SC(N)=N2` (configuration not stated), the TGI [1] is reported as > 100 µM, the TGI [2] is reported as > 100 µM and the TGI [3] is reported as > 100 µM. For the same compound, the TGI [4] was > 100 µM, the TGI [5] was > 100 µM and the TGI [6] was > 100 µM. For the same compound, the TGI [7] was > 100 µM.

For `O=C1C=CC(=O)N1Nc1ccc([N+](=O)[O-])cc1[N+](=O)[O-]`, the TGI [1] was > 100 µM, the TGI [2] was > 100 µM and the TGI [8] was > 100 µM. For the same compound, the TGI [4] was > 100 µM, the TGI [6] was > 100 µM and the TGI [7] was > 100 µM. For the same compound, the TGI [9] was > 100 µM and the TGI [10] was > 77 µM.

For `CC(=O)O[C@]12CCCCCC1C1(O)C(O)CCC[C@H]12` (some centres not stated), the TGI [1] was > 100 µM, the TGI [2] was > 100 µM and the TGI [4] was > 100 µM. For the same compound, the TGI [6] was > 100 µM and the TGI [7] was > 100 µM.

With `N#CC(C#N)=CNC(=S)c1ccncc1` the TGI [1] was > 100 µM, the TGI [2] was > 100 µM and the TGI [8] was > 100 µM. The TGI [3] was > 100 µM, the TGI [4] was > 100 µM and the TGI [5] was > 100 µM. For the same compound, the TGI [6] was > 100 µM, the TGI [7] was > 100 µM and the TGI [9] was 1.36 µM.

`COc1ccc2cc(-c3ccc(-c4ccc(C(=N)N)s4)s3)ccc2c1` showed a GI50 [1] of 1.72 µM, a TGI [1] of 3.27 µM and a GI50 [2] of 2.13 µM. The TGI [2] was > 100 µM, the GI50 [8] was 2.11 µM and the TGI [8] was 4.18 µM. For the same compound, the GI50 [3] was 2.13 µM, the TGI [3] was 4.33 µM and the GI50 [6] was 1.95 µM. The TGI [6] was 3.82 µM, the GI50 [7] was 3.06 µM and the TGI [7] was 8.76 µM. The GI50 [9] was 2.42 µM and the TGI [9] was 6.07 µM.

`CSc1cc(Cl)c(C)cc1S(=O)(=O)NC(=O)NNc1ccc(Cl)cc1` was tested, and the TGI [1] was > 100 µM, the TGI [2] was > 100 µM and the TGI [8] was > 100 µM. For the same compound, the TGI [3] was > 100 µM, the TGI [4] was > 100 µM and the TGI [5] was > 100 µM. The TGI [6] was > 100 µM, the TGI [7] was > 100 µM and the TGI [9] was > 100 µM.

In the case of `CC12CC(=O)C3C(C(=O)C1)C32C` (configuration not stated), the TGI [1] is reported as > 100 µM, the TGI [2] is reported as > 100 µM and the TGI [8] is reported as > 100 µM. The TGI [3] was > 100 µM, the TGI [4] was > 100 µM and the TGI [5] was > 100 µM. The TGI [6] was > 100 µM, the TGI [7] was > 100 µM and the TGI [9] was > 100 µM.

`N#C/C(=C\c1cc(Br)c(O)c(Br)c1)c1cccnc1` was tested, and the TGI [1] was > 100 µM, the TGI [2] was > 100 µM and the TGI [8] was > 100 µM. The TGI [3] was 69.7 µM, the TGI [4] was > 100 µM and the TGI [5] was > 100 µM. The TGI [7] was > 100 µM and the TGI [9] was 44 µM.

`O=C(NCCCN(CCCCN(CCCNC(=O)C(F)(F)F)Cc1ccccc1)Cc1ccccc1)C(F)(F)F` gave a TGI [1] of 19.2 µM, a TGI [2] of 26.6 µM and a TGI [8] of 40.8 µM. It also gave a TGI [4] of 59.5 µM, a TGI [5] of 24.7 µM and a TGI [6] of 21.3 µM. For the same compound, the TGI [7] was 30.1 µM and the TGI [10] was 38.1 µM.

Reference: PubChem BioAssay (NCI)
